Tests used:
Recombinant Cat D = Recombinant Cat D (Homo sapiens (Human), UniProt P07339); assay: In vitro enzymatic Cathepsin D (Cat D) FRET assay; assay type: biochemical; details: read-out: IC50 IP (μM) CatD
How it was run: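 Assay pH is 3.5 (0.05 M citrate, 5 mM CHAPS, 10% DMSO final) with Cat D from CHO cells. A 20 nM quenched peptide substrate is cleaved over one hour; the reaction is ended with Tris and read by fluorescence (ex 500, em 580 nm).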

human recombinant BACE1 = human recombinant BACE1 (Homo sapiens (Human), UniProt P56817); assay: In vitro enzymatic BACE1 FRET assay; assay type: biochemical; details: read-out: IC50 IP (μM) BACE1 enzyme
How it was run: (§1)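 Tris addition raises the pH to neutral to stop the reaction before fluorescence is measured at 590 nm emission with 488 nm excitation.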

[1] = tested on: Aβ40 in conditioned medium of cells stably expressing Amyloid Precursor Protein (APP); assay: In vitro BACE-1 cell-based assay (Aβ40 sandwich ELISA); details: read-out: IC50 IP (μM) BACE1 cell
How it was run: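 Read-out: time-resolved fluorescence (Streptavidin-Europium) of Aβ40 captured by pAb40 and detected with biotinylated 6E10 from supernatants of APP-stable cells. Cells were exposed to compound for 24 h, 10-point dose response, top dose 100 μM or 10 μM, 0.1% DMSO. IC50 fitted to percent of control.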

human recombinant BACE2 = human recombinant BACE2 (Homo sapiens (Human), UniProt Q9Y5Z0); assay: In vitro enzymatic BACE2 FRET assay; assay type: biochemical; details: read-out: IC50 IP (μM) BACE2 enzyme
How it was run: as §1

Sequence of Recombinant Cat D (P07339 65-412): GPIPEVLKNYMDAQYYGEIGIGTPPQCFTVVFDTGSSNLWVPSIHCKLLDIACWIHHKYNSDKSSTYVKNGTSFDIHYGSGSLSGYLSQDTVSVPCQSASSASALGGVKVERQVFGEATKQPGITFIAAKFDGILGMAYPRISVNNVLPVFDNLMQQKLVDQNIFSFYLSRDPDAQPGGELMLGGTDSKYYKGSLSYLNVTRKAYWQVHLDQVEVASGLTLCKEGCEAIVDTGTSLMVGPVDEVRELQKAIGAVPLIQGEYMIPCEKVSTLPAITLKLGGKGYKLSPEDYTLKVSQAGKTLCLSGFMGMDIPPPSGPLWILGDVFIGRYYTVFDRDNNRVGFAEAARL
Sequence of human recombinant BACE1 (P56817 46-501): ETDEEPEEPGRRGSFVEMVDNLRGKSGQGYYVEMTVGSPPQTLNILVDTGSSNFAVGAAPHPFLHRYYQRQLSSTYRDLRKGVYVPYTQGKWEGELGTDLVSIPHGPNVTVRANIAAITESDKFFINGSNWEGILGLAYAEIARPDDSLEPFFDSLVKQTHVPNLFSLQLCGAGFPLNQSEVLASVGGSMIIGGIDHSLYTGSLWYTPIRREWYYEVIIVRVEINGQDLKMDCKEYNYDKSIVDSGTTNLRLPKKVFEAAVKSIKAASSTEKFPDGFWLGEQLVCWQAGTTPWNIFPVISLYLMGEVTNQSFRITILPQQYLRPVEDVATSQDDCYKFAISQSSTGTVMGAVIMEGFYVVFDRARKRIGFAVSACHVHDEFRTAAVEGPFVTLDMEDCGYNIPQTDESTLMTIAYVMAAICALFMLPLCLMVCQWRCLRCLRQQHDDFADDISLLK
Sequence of human recombinant BACE2 (Q9Y5Z0 63-518): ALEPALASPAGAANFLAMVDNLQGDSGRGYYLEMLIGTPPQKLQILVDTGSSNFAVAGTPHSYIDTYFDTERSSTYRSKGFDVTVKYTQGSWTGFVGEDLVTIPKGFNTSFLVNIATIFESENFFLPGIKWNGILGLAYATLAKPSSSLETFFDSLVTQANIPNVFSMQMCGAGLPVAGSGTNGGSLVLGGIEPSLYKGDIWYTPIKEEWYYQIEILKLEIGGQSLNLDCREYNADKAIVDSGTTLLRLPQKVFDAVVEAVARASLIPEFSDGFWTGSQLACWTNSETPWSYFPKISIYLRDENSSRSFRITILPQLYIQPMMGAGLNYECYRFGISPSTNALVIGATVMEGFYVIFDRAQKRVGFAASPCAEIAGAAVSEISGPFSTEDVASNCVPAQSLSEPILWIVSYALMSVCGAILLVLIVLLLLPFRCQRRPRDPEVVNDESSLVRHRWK

IC50 (Recombinant Cat D) [µM] | IC50 (human recombinant BACE1) [µM] | IC50 [1] [µM] | IC50 (human recombinant BACE2) [µM] | SMILES
> 400 | 0.0085 | 0.021 | 0.333 | COC[C@H](C)Oc1cnc(C(=O)Nc2ccc(F)c([C@@]3(C)N=C(N)S[C@@]4(COC)C[C@H]43)c2)cn1 [Example 970, N-(3-((1S,5S,6S)-3-amino-1-(methoxymethyl)-5-methyl-2-thia-4-azabicyclo[4.1.0]hept-3-en-5-yl)-4-fluorophenyl)-5-((1S)-2-methoxy-1-methylethoxy)-2-pyrazinecarboxamide]
611 | 0.00522 | 0.0185 | 0.38 | COC[C@H](C)Oc1cnc(C(=O)Nc2ccc(F)c([C@@]3(C)N=C(N)S[C@@]4(C(F)F)C[C@@H]34)c2)cn1 [Example 971, N-(3-((1S,5S,6S)-3-amino-1-(difluoromethyl)-5-methyl-2-thia-4-azabicyclo[4.1.0]hept-3-en-5-yl)-4-fluorophenyl)-5-((1S)-2-methoxy-1-methylethoxy)-2-pyrazinecarboxamide]
138 | 0.000454 | 0.00455 | 0.0794 | C[C@]1(c2cc(NC(=O)c3cnc(OCC(F)(F)F)cn3)ccc2F)N=C(N)S[C@@]2(C(=O)NCC(F)(F)F)C[C@H]21 [Example 972, (1S,5S,6S)-3-amino-5-(2-fluoro-5-(5-(2,2,2-trifluoroethoxy)pyrazine-2-carboxamido)phenyl)-5-methyl-N-(2,2,2-trifluoroethyl)-2-thia-4-azabicyclo[4.1.0]hept-3-ene-1-carboxamide]
1570 | 0.000404 | 0.00192 | 0.0476 | CNC(=O)[C@]12C[C@H]1[C@@](C)(c1cc(NC(=O)c3cnc(OCC(F)(F)F)cn3)ccc1F)N=C(N)S2 [Example 973, (1S,5S,6S)-3-amino-5-(2-fluoro-5-(5-(2,2,2-trifluoroethoxy)pyrazine-2-carboxamido)phenyl)-N,5-dimethyl-2-thia-4-azabicyclo[4.1.0]hept-3-ene-1-carboxamide]
14.5 | 0.00132 | 0.00257 | 0.014 | CC(C)[C@H](C)NC(=O)[C@]12C[C@H]1[C@@](C)(c1cc(NC(=O)c3cnc(OCC(F)(F)F)cn3)ccc1F)N=C(N)S2 [Example 974, (1S,5S,6S)-3-amino-5-(2-fluoro-5-(5-(2,2,2-trifluoroethoxy)pyrazine-2-carboxamido)phenyl)-5-methyl-N—((S)-3-methylbutan-2-yl)-2-thia-4-azabicyclo[4.1.0]hept-3-ene-1-carboxamide]
212 | 0.000565 | 0.00551 | 0.0562 | C#CCOc1cnc(C(=O)Nc2cc(F)c(F)c([C@@]3(C)N=C(N)S[C@@]4(C(=O)OC)C[C@H]43)c2)cn1 [Example 975, methyl (1S,5S,6S)-3-amino-5-(2,3-difluoro-5-(((5-(2-propyn-1-yloxy)-2-pyrazinyl)carbonyl)amino)phenyl)-5-methyl-2-thia-4-azabicyclo[4.1.0]hept-3-ene-1-carboxylate]
577 | 0.000782 | 0.00439 | 0.0876 | CCNC(=O)[C@]12C[C@H]1[C@@](C)(c1cc(NC(=O)c3cnc(OCC(F)(F)F)cn3)ccc1F)N=C(N)S2 [Example 977, (1S,5S,6S)-3-amino-N-ethyl-5-(2-fluoro-5-(5-(2,2,2-trifluoroethoxy)pyrazine-2-carboxamido)phenyl)-5-methyl-2-thia-4-azabicyclo[4.1.0]hept-3-ene-1-carboxamide]
> 400 | 0.000344 | 0.000648 | 0.0195 | C#C[C@H](C)Oc1cnc(C(=O)Nc2ccc(F)c([C@@]3(C)N=C(N)S[C@@]4(C(=O)NC)C[C@H]43)c2)cn1 [Example 978, (1S,5S,6S)-3-amino-5-(5-(5-((S)-but-3-yn-2-yloxy)pyrazine-2-carboxamido)-2-fluorophenyl)-N,5-dimethyl-2-thia-4-azabicyclo[4.1.0]hept-3-ene-1-carboxamide]
> 400 | 0.000315 | 0.000859 | 0.0201 | C#CCOc1cnc2c(Nc3ccc(F)c([C@@]4(C)N=C(N)S[C@@]5(C(=O)NC)C[C@H]54)c3)nccc2n1 [Example 979, (1S,5S,6S)-3-amino-5-(2-fluoro-5-((2-(2-propyn-1-yloxy)pyrido[3,4-b]pyrazin-5-yl)amino)phenyl)-N,5-dimethyl-2-thia-4-azabicyclo[4.1.0]hept-3-ene-1-carboxamide]
19.8 | 0.000455 | 0.000747 | 0.013 | C#CCOc1cnc(C(=O)Nc2cc(F)c(F)c([C@@]3(C)N=C(N)S[C@@]4(CNC(=O)OC(C)(C)C)C[C@H]43)c2)cn1 [Example 980, tert-butyl(((1S,5S,6S)-3-amino-5-(2,3-difluoro-5-(5-(prop-2-yn-1-yloxy)pyrazine-2-carboxamido)phenyl)-5-methyl-2-thia-4-azabicyclo[4.1.0]hept-3-en-1-yl)methyl)carbamate]
106 | 0.00315 | 0.00074 | 0.0575 | C#CCOc1cnc(C(=O)Nc2cc(F)c(F)c([C@@]3(C)N=C(N)S[C@@]4(CN)C[C@H]43)c2)cn1 [Example 981, N-(3-((1S,5S,6S)-3-amino-1-(aminomethyl)-5-methyl-2-thia-4-azabicyclo[4.1.0]hept-3-en-5-yl)-4,5-difluorophenyl)-5-(prop-2-yn-1-yloxy)pyrazine-2-carboxamide]
175 | 0.000679 | 0.00329 | 0.032 | C[C@]1(c2cc(NC(=O)c3cnc(OCC(F)(F)F)cn3)ccc2F)N=C(N)S[C@@]2(C(=O)NC3CC3(F)F)C[C@H]21 (stereo partly drawn) [Example 982, (1S,5S,6S)-3-amino-N-(2,2-difluorocyclopropyl)-5-(2-fluoro-5-(5-(2,2,2-trifluoroethoxy)pyrazine-2-carboxamido)phenyl)-5-methyl-2-thia-4-azabicyclo[4.1.0]hept-3-ene-1-carboxamide]
172 | 0.00151 | 0.00736 | 0.174 | CC(C)(CF)NC(=O)[C@]12C[C@H]1[C@@](C)(c1cc(NC(=O)c3cnc(OCC(F)(F)F)cn3)ccc1F)N=C(N)S2 [Example 983, (1S,5S,6S)-3-amino-N-(1-fluoro-2-methylpropan-2-yl)-5-(2-fluoro-5-(5-(2,2,2-trifluoroethoxy)pyrazine-2-carboxamido)phenyl)-5-methyl-2-thia-4-azabicyclo[4.1.0]hept-3-ene-1-carboxamide]
1110 | 0.000858 | 0.00125 | 0.0217 | CON(C)C(=O)[C@]12C[C@H]1[C@@](C)(c1cc(NC(=O)c3cnc(OCC(F)(F)F)cn3)ccc1F)N=C(N)S2 [Example 984, (1S,5S,6S)-3-amino-5-(2-fluoro-5-(5-(2,2,2-trifluoroethoxy)pyrazine-2-carboxamido)phenyl)-N-methoxy-N,5-dimethyl-2-thia-4-azabicyclo[4.1.0]hept-3-ene-1-carboxamide]
1120 | 0.000276 | 0.000709 | < 0.00203 | CNC(=O)[C@]12C[C@H]1[C@@](C)(c1cc(NC(=O)c3ccc(Cl)cn3)ccc1F)N=C(N)S2 [Example 985, (1S,5S,6S)-3-amino-5-(5-(5-chloropicolinamido)-2-fluorophenyl)-N,5-dimethyl-2-thia-4-azabicyclo[4.1.0]hept-3-ene-1-carboxamide]
172 | 0.00113 | 0.00141 | 0.00598 | CC(C)(C)NC(=O)[C@]12C[C@H]1[C@@](C)(c1cc(NC(=O)c3ccc(C#N)cn3)ccc1F)N=C(N)S2 [Example 986, (1S,5S,6S)-3-amino-N-tert-butyl-5-(5-(((5-cyano-2-pyridinyl)carbonyl)amino)-2-fluorophenyl)-5-methyl-2-thia-4-azabicyclo[4.1.0]hept-3-ene-1-carboxamide]
49.9 | 0.00014 | 0.000229 | 0.0079 | C#CCOc1cnc(C(=O)Nc2ccc(F)c([C@@]3(C)N=C(N)S[C@@]4(C(=O)NC)C[C@H]43)c2)cn1 [Example 987, (1S,5S,6S)-3-amino-5-(2-fluoro-5-(((5-(2-propyn-1-yloxy)-2-pyrazinyl)carbonyl)amino)phenyl)-N,5-dimethyl-2-thia-4-azabicyclo[4.1.0]hept-3-ene-1-carboxamide]
> 400 | 0.0216 | 0.0532 | 0.336 | C#C[C@@H](C)Oc1cnc(C(=O)Nc2ccc(F)c([C@@]3(C)N=C(N)S[C@@]4(COC)C[C@H]43)c2)cn1 [Example 988]
174 | 0.000518 | 0.00067 | 0.0406 | C#CCOc1cnc(C(=O)Nc2cnc(OC)c([C@@]3(C)N=C(N)S[C@@]4(C(F)F)C[C@@H]34)c2)cn1 [Example 989, N-(5-((1S,5S,6S)-3-amino-1-(difluoromethyl)-5-methyl-2-thia-4-azabicyclo[4.1.0]hept-3-en-5-yl)-6-methoxy-3-pyridinyl)-5-(2-propyn-1-yloxy)-2-pyrazinecarboxamide]

— patent US20160046618A1, “Cyclopropyl Fused Thiazin-2-Amine Compounds as Beta-Secretase Inhibitors and Methods of Use” (AMGEN INC., priority 2014, published 2016)
